Results published in patent US11919898B2, “Crystal form of azaindole derivative and use thereof” (Wuxi Life Fountain Biotech Co., Ltd, priority 2020, dated 2024).
Read-outs that look alike come from different tables or passages of the source.

Assays:
[1] = Solid stability test (high temperature, high humidity, light, accelerated); format: physicochemical
Procedure: High Performance Liquid Chromatography (HPLC) of the Present Invention [table] Experimental method: 12 parallel samples of the crystal form A of the compound of formula (II) were weighed in an amount of about 1 g each. Each sample was fed to a double-layer LDPE bag, and each layer of the LDPE bag was tied and sealed. […] The photostability experiment was carried out as described in the Chinese Pharmacopoeia and ICH Q1B. The samples were irradiated with visible light and UV light.

human c-Met = molecular target: T1, human c-Met (Homo sapiens, UniProt P08581); assay: 33P isotope-labeled kinase activity assay, c-Met; format: biochemical; details: ATP 10 μM
T1 construct: purchased Invitrogen PV3143
T1 sequence (P08581 25-1390): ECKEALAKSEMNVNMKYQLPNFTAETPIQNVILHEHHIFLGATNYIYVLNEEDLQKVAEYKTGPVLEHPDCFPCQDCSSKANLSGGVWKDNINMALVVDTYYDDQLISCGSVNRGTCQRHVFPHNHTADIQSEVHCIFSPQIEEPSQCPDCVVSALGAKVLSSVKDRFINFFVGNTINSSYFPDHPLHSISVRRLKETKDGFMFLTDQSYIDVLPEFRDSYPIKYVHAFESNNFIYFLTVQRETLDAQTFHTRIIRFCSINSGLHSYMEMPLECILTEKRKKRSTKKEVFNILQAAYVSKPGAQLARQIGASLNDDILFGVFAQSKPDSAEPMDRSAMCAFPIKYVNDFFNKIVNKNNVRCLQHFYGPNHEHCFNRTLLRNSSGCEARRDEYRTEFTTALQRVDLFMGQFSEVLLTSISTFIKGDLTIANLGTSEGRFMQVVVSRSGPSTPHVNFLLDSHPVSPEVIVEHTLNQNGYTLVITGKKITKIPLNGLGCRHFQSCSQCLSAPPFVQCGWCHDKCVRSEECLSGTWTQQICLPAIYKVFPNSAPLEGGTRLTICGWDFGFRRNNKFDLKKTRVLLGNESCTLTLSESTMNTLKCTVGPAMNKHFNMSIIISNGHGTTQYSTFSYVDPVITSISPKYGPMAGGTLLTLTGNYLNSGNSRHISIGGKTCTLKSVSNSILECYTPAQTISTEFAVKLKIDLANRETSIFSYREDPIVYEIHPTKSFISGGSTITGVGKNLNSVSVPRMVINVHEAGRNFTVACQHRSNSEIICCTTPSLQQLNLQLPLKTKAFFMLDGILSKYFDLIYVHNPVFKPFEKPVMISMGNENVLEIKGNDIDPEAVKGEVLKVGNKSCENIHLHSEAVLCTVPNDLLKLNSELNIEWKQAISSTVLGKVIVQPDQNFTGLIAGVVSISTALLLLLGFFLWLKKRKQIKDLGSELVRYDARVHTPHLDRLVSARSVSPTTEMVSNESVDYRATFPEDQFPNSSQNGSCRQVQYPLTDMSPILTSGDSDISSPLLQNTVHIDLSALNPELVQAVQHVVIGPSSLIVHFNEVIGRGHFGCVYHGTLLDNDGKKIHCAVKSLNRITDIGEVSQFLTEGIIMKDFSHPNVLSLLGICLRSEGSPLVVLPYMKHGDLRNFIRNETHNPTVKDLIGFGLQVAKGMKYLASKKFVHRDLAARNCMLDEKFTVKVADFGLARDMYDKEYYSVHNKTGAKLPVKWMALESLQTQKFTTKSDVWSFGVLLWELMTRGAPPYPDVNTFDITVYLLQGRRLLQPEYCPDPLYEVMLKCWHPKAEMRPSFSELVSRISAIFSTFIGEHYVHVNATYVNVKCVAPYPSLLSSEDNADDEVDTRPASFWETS
Procedure: (§1) The IC50 value was tested by ^33P isotope-labeled kinase activity assay (Reaction Biology Corp) to evaluate the inhibition of the test compounds on human FGFR1, FGFR4, and c-Met.
(§2) Buffer: 20 mM Hepes (pH 7.5), 10 mM MgCl2, 1 mM EGTA, 0.02% Brij35, 0.02 mg/ml BSA, 0.1 mMNa3VO4, 2 mM DTT, and 1% DMSO.
(§3) Test procedure: At room temperature, the test compound was dissolved in DMSO to prepare a 10 mM solution for use. The substrate was dissolved in freshly prepared buffer, and the test kinase was added and mixed well. A solution of the test compound in DMSO was added to the mixed reaction solution using an acoustic technology (Echo550). The compound concentration in the reaction solution was 1 μM, 0.25 μM, […], 0.977 nM, 0.244 nM, 0.061 nM, 0.0153 nM, 0.00381 nM, or 10 μM, 2.50 μM, 0.62 μM, 0.156 μM, 39.1 nM, 9.8 nM, 2.4 nM, 0.61 nM, 0.15 nM, and 0.038 nM, respectively. After 15 min of incubation, ^33P-ATP (with an activity of 0.01 μCi/nL, the corresponding concentration is listed in Table 18) was added to start the reaction. The supplier's catalogue number, lot number, and concentration in the reaction solution of FGFR1, FGFR4, c-Met, and substrates thereof are listed in Table 18. […]

human FGFR4 = molecular target: T2, human FGFR4 (Homo sapiens, UniProt P22455); assay: 33P isotope-labeled kinase activity assay, FGFR4; format: biochemical; details: ATP 100 μM
T2 construct: purchased Invitrogen P3054
T2 sequence (P22455 22-802): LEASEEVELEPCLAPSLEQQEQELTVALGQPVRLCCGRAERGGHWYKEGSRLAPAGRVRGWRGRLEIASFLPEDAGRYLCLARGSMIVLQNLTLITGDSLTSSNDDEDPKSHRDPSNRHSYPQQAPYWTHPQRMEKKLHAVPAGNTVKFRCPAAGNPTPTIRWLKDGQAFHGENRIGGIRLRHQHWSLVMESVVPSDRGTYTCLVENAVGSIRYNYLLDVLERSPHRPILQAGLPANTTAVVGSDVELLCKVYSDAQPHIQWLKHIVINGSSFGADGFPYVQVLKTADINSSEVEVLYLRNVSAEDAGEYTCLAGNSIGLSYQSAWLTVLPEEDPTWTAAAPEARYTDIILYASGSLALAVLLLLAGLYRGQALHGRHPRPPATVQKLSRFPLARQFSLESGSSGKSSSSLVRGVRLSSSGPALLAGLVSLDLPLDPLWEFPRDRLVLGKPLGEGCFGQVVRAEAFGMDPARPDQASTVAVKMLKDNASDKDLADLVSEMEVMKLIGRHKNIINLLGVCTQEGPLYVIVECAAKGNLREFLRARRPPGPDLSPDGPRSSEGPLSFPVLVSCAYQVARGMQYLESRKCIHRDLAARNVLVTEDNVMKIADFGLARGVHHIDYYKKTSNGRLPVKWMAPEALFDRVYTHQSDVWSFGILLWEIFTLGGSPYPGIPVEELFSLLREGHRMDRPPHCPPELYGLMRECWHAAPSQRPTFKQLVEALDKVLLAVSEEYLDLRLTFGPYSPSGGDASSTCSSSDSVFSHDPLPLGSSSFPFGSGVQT
Procedure: as §1, §2, §3

[2] = Pharmacokinetic evaluation in rats (intravenous and oral); format: in vivo, male SD rats
Procedure: For agents for intravenous administration, 30% (v/v) PEG400 in purified water was as a vehicle. An appropriate amount of compound was accurately weighed into a glass flask, 30 vol % of PEG400 of the container volume was slowly added to the container with stirring, and then the remaining 70 vol % of pure water was added to make up to the final volume and stirred continuously until a clear solution was obtained. The solution was filtered through a […] filter membrane, and stored at room temperature for later use. The agents for intravenous administration were formulated on the day of administration, and injected into male SD rats via tail vein (fasted overnight before administration) at a dose of 0.5 mg/kg. Approximately 0.18 mL of blood was collected from the jugular vein or tail vein at 0.0833, 0.25, 0.5, 1.0, 2.0, 4.0, 8.0 and 24 hrs after intravenous administration. The corresponding test compound in the vehicle was administered by gavage to male SD rats (fasted overnight before administration) at a dose of 5 mg/kg. The experimental conditions are detailed in Table 20. Blood was collected from the jugular or tail vein at 0.0833, 0.25, 0.5, 1.0, 2.0, 4.0, 6.0, 8.0 and 24 hrs after oral administration. The blood was fed to an anticoagulation tube supplemented with EDTA-K2, and centrifuged to separate plasma. The plasma concentrations were determined by LC-MS/MS, and the relevant pharmacokinetic parameters were calculated by the linear logarithmic trapezoid method of non-compartmental model using WinNonlm™ Version 6.3 (Pharsight, Mountain View, CA) pharmacokinetic software.

[3] = Stability comparison of crystal form A and crystal form B (slurry in ethanol, XRPD); format: physicochemical; details: from conversion in ethanol, 16 hrs
From the text: 35 g of the crystal form B of the compound of Formula (II) was weighed, added to ethanol, and stirred for 16 hrs.

[4] = Hygroscopicity test by dynamic vapor sorption (DVS); format: physicochemical
Procedure: Dynamic Vapor Sorption (DVS) of the Present Invention • Instrument model: SMS DVS Intrinsic Dynamic Vapor Sorption Analyzer • Test method: A sample (10-30 mg) is tested in a DVS sample pan. Detailed DVS Parameters: • Temperature: 25° C. • Equilibration: dm/dt=0.002%/min (Minimum: 10 min, Maximum: 180 min) • RH (%) test interval: 10 (0-90%), 5 (90-95%) • RH (%) test interval range: 0-95-0 Hygroscopicity evaluations are classified as follows: [table] Note: AW % represents the hygroscopic weight gain of the test product at 25° C./80% RH. Experimental Method: • 10-30 mg of the crystal form A of the compound of Formula (II) was placed in the DVS sample pan and tested. Experimental Method: • 10-30 mg of the crystal form G of the compound of Formula (III) was placed in the DVS sample pan and tested. Experimental Method: • 10-30 mg of the crystal form J of the compound of Formula (IV) was placed in the DVS sample pan and tested.

[5] = Acceleration experiment (40° C./relative humidity 75%, open), 1 month
[6] = Acceleration experiment (40° C./relative humidity 75%, open), 2 month
[7] = Acceleration experiment (40° C./relative humidity 75%, open), 3 month
[8] = High humidity (room temperature/relative humidity 92.5%, open), Day 5
[9] = High humidity (room temperature/relative humidity 92.5%, open), Day 10
[10] = High humidity (room temperature/relative humidity 92.5%, open), Day 30
[11] = High temperature (60° C., open), Day 5
[12] = High temperature (60° C., open), Day 10
[13] = High temperature (60° C., open), Day 30
[14] = Light irradiation (1.2 × 10^6 Lux·hr / near ultraviolet 200 w·hr/m^2, open 10 days), light irradiation sample
[15] = Light irradiation test, sample in the dark
[16] = intravenous, 0.5 mg/kg, male SD rats
[17] = oral (gavage), 5 mg/kg, male SD rats
[18] = rat, plasma, PO, 5 mg/kg, male SD rats (table title says mice)

- Content (%) [1, 5]: 99.7%
- Total impurity (%) [1, 5]: 0.67%
- Content (%) [1, 6]: 99.7%
- Total impurity (%) [1, 6]: 0.69%
- Content (%) [1, 7]: 99.9%
- Total impurity (%) [1, 7]: 0.68%
- Content (%) ([1]; Day 0): 99.8%
- Total impurity (%) ([1]; Day 0): 0.71%
- Content (%) [1, 8]: 99.6%
- Total impurity (%) [1, 8]: 0.75%
- Content (%) [1, 9]: 99.8%
- Total impurity (%) [1, 9]: 0.71%
- Content (%) [1, 10]: 98.9%
- Total impurity (%) [1, 10]: 0.65%
- Content (%) [1, 11]: 99.6%
- Total impurity (%) [1, 11]: 0.78%
- Content (%) [1, 12]: 99.9%
- Total impurity (%) [1, 12]: 0.76%
- Content (%) [1, 13]: 98.5%
- Total impurity (%) [1, 13]: 0.80%
- Content (%) [1, 14]: 99.8%
- Total impurity (%) [1, 14]: 0.76%
- Content (%) [1, 15]: 99.8%
- Total impurity (%) [1, 15]: 0.79%
- IC50 (human c-Met): 15.9 nM
- IC50 (human FGFR4): 1.49 nM
- Drug exposure [2, 16]: high level
- Volume of distribution [2, 16]: high
- clearance [2, 16]: moderately low
- half-life [2, 16]: moderate
- Oral exposure [2, 17]: high level
- Peak time [2, 17]: rapid
- AUC(0-t) ([2]; rat, plasma, IV, 0.5 mg/kg, male SD rats (table title says mice)): 1.01 µM·h
- clearance ([2]; rat, plasma, IV, 0.5 mg/kg, male SD rats (table title says mice), read-out: Cl): 18.4 mL/min/kg
- half-life ([2]; rat, plasma, IV, 0.5 mg/kg, male SD rats (table title says mice), read-out: T1/2 (converted)): 79.2 min
- Vd ([2]; rat, plasma, IV, 0.5 mg/kg, male SD rats (table title says mice), read-out: Vdss): 1.87 L/kg
- AUC(0-t) [2, 18]: 5.18 µM·h
- Cmax [2, 18]: 1960 nM
- Tmax [2, 18]: 30 min
- ΔW, hygroscopic weight gain ([4]; 25° C. and 80% RH, DVS): 0.3710%
- Classification of hygroscopicity ([4]; 25° C./80% RH): slightly hygroscopic
Structure (SMILES): COc1cc(OC)c(F)c(Cc2c[nH]c3ncc(-c4cnn(CCO)c4)cc23)c1F.Cl
- Solid stability in words ([1]; accelerated conditions and affecting factors): very stable, and no obvious unknown impurities are formed
- Oral exposure level compared with other salt crystal forms [2, 17]: higher than that of the crystal form G of the compound of Formula (III), and the crystal form J of the compound of Formula (III)
- Relative stability of crystal forms [3]: more stable than the crystal form B of the compound of Formula (II)
